{
  "source": "patent US10849879B2",
  "about": "“Localized modulation of tissues and cells to enhance therapeutic effects including renal denervation” (Mercator MedSystems, Inc., priority 2011, dated 2020)",
  "origin": "cited, not measured here",
  "system": "axon",
  "note": "Values joined by “and” are separate entries in the source; they are usually repeats but may differ in a detail not shown here. Equal values may be shown once.",
  "data": [
    {"substance": "(2-(Hexahydro-1(2H)-azocinyl)ethyl)guanidine sulfate (1:1) [guanethidine monosulfate]", "values": [
      {"measurement": "concentrations producing axon retraction in vitro", "result": "≥ 0.2 mM and ≥ 60 μg/mL"}
    ]}
  ]
}
